Results published in patent publication US12582635B2, “Compositions and methods for treating cancer with atypical BRAF mutations” (BIOMED VALLEY DISCOVERIES, INC., priority 2017, dated 2026).
Where two headings read alike, the source gives them in different places.

Experiments:
[1] = system: cancers harboring atypical (non-V600E/K) BRAF mutations; test: solid tumor Phase 1b trial of BVD-523, tumor response by RECIST v1.1 and duration of treatment; format: in vivo, human; conditions: for duration of treatment: single patient
Description: The waterfall plot depicted in FIG. 2 provides an illustration of human clinical trial patient information showing each individual patient's response to treatment with BVD-523, as measured by % change in tumor burden. Patients generally received 600 mg, twice daily (BID), with some patients receiving a deescalated dose of 300 mg-400 mg BID if side effects were not manageable with other palliative medication. […] The horizontal axis across the plot serves as a baseline measurement for each patient. The vertical axis is a measure of the maximum percentage change from baseline; i.e., percent growth or reduction of tumor burden by radiologic measurement according to RECIST v1.1. Radiologic measurement comprised computed tomography (CT) scan and, rarely, magnetic resonance imaging (MRI). The tumor burden data represented by FIG. 2 is arranged from the worst value (i.e. greatest progression of tumor burden) on the left side of the plot to the best value (i.e., greatest reduction of tumor burden) on the right side of the plot. RECIST v1.1 response criteria for measured target lesions have been described previously. (See Eisenhauer, E. A., et al., New response evaluation criteria in solid tumours: Revised RECIST guideline (version 1.1), European J. of Cancer 45, 228-247 (2009), incorporated by reference herein in its entirety). […] Members of Group 1 are any patients with any BRAF mutation in any tumor type other than colorectal cancer (CRC) and non-small cell lung carcinoma (NSCLC), and that have not been previously treated with a MAPK pathway inhibitor. The members of Group 2 are patients with any BRAF mutation in CRC that have not been previously treated with a MAPK pathway inhibitor. The members of Group 3 are patients having a tumor with a BRAF […] mutation that is refractory to MAPK inhibitor treatment. The members of Group 6 are patients with any BRAF mutation present in NSCLC. […] The duration of treatment for each subject in each group is illustrated from the top (longest treatment duration) to bottom (least treatment duration) of the groups. The horizontal axis represents the duration, in days, that the patient was on the study. […] All 28 patients measured for RECIST v1.1 response criteria are included, plus additional patients not evaluated by RECIST v1.1 (diamond=partial response; circle=stable disease: vertical bar=progressive disease; triangle=not evaluated). The mean duration of BVD-523 treatment before discontinuation for tumors harboring the same BRAF mutation was: […], 73.6 days; […], 208.14 days: […], 50.25 days: […], 73.3 days; […], 63.5 days. For single patient representatives of specific BRAF mutations, the duration of treatment was: […], 304 days: […], 84 days: […], 77 days: BRAF fusion, 65 days: BRAF-AGAP3 rearrangement, 43 days: BRAF exon 15 splice variant, 15 days. By genomic screening of cancer patients for BRAF mutation and treating them prior to full in vitro characterization of those mutations (as a driver mutation), BVD-523 is shown to be useful to interrogate and discover efficacious treatment options for patients carrying mutations in BRAF. The clinical population of patients and the efficacy is not defined primarily by tumor type, but rather mutational status of enzymes such as BRAF, upstream of ERK 1/2 kinase activation.

ERK1/2 [2] = test: autophosphorylation of ERK (mechanism of action of ERK1/2 inhibitors); format: biochemical; conditions: stated in the description, no test described
ERK1/2 [3] = conditions: Morris et al., 2013; cited from earlier work
[4] = 28 evaluable patients, RECIST v1.1, generally 600 mg BID

Structure (SMILES)	number of patients with partial response (PR) [1, 4]	number of patients with progressive disease at first evaluation [1, 4]	number of patients with stable disease [1, 4]	patients with partial response or stable disease ([1]; patients with atypical (non-V600E/K) BRAF mutations, RECIST v1.1)	duration of treatment ([1]; BRAF F247L)	duration of treatment ([1]; BRAF G466V)	duration of treatment ([1]; BRAF L485W)	duration of treatment ([1]; BRAF exon 15 splice variant)	duration of treatment ([1]; BRAF fusion)	duration of treatment ([1]; BRAF-AGAP3 rearrangement)	mean duration of treatment before discontinuation ([1]; tumors harboring BRAF D594)	mean duration of treatment before discontinuation ([1]; tumors harboring BRAF G469)	mean duration of treatment before discontinuation ([1]; tumors harboring BRAF K601E)	mean duration of treatment before discontinuation ([1]; tumors harboring BRAF L597)	mean duration of treatment before discontinuation ([1]; tumors harboring BRAF T599 Dup)	effect on autophosphorylation of ERK (ERK1/2 [2])	effect on autophosphorylation of ERK (ERK1/2 [3])
CC(C)Nc1cc(-c2c[nH]c(C(=O)N[C@H](CO)c3cccc(Cl)c3)c2)c(Cl)cn1 [BVD-523]	Five	Three	19 patients	24 out of 28	84 days	77 days	304 days	15 days	65 days	43 days	73.6 days	208.14 days	50.25 days	73.3 days	63.5 days	allows for the autophosphorylation of ERK while still inhibiting ERK	
O=C(Nc1ccc2[nH]nc(-c3ccncc3)c2c1)[C@@H]1CCN(CC(=O)N2CCN(c3ccc(-c4ncccn4)cc3)CC2)C1 [SCH772984]																	inhibit autophosphorylation of ERK
